Measurements taken from US9271971B2, “Pyrido[3,4-B]indoles and methods of use” (Medivation Technologies, Inc., priority 2009, dated 2016).

Legend:
[1] = molecular target: human recombinant dopamine D2L receptor (Homo sapiens, UniProt P14416); experiment: Dopamine D2L radioligand binding assay; conditions: [3H]Spiperone specific binding; for inhibition at 1 µM: read-out: Percent Inhibition of ligand binding, Dopamine (1 μM ligand conc.) D2L
Procedure: To evaluate in radioligand binding assays the activity of compounds of the invention, human recombinant dopamine D2L receptor expressed in Chinese hamster ovary (CHO) cells [Grandy, D. K. et al. Proc. Natl. Acad. Sci. USA. (1989), 86:9762; Hayes, G. et al., Mol. Endocrinol. (1992), 6:920] in a modified Tris-HCl buffer (50 mM Tris-HCl, pH 7.4, 1.4 mM Ascorbic Acid, 0.001% BSA, 150 mM NaCl) was used. Compounds of the invention were incubated with 0.16 nM [^3H]Spiperone for 120 min. at 25° C. Non-specific binding was estimated in the presence of 10 μM Haloperidol. Receptor proteins were filtered and washed, the filters were then counted to determine [^3H]Spiperone specifically bound. Compounds were screened at 1 μM or lower, using 1% DMSO as vehicle. Biochemical assay results are presented as the percent inhibition of specific binding in Table 3.

[2] = molecular target: human recombinant histamine H1 receptor (Homo sapiens, UniProt P35367); experiment: Histamine H1 radioligand binding assay; conditions: [3H]Pyrilamine specific binding; for inhibition at 1 µM: read-out: Percentage Inhibition, Histamine Binding (1 μM) H1
Procedure: To evaluate in radioligand binding assays the activity of compounds of the invention, human recombinant histamine H1 receptor expressed in Chinese hamster ovary (CHO) cells [De Backer, M. D. et al., Biochem. Biophys. Res. Comm. (1993), 197(3):1601] in a modified Tris-HCl buffer (50 mM Tris-HCl, pH 7.4, 2 mM MgCl2, 100 mM NaCl, 250 mM Sucrose) was used. Compounds of the invention were incubated with 1.2 nM [^3H]Pyrilamine for 180 min. at 25° C. Non-specific binding was estimated in the presence of 1 μM pyrilamine. Receptor proteins were filtered and washed, the filters were then counted to determine [^3H]Pyrilamine specifically bound. Compounds were screened at 1 μM or lower, using 1% DMSO as vehicle. Biochemical assay results are presented as the percent inhibition of specific binding in Table 2.

[3] = molecular target: T1, human recombinant serotonin (5-Hydroxytryptamine) 5-HT6 receptor (Homo sapiens, UniProt P50406); experiment: Serotonin 5-HT6 radioligand binding assay; conditions: [3H]LSD specific binding, read-out: Percent Inhibition of ligand binding, Serotonin (1 μM ligand concentration) 5-HT6
T1 construct: expressed in transfected cells; host or cells: human HeLa cells
Procedure: To evaluate in radioligand binding assays the activity of compounds of the invention, human recombinant serotonin (5-Hydroxytryptamine) 5-HT6 receptor expressed in human HeLa cells [Monsma, F. J. Jr et al., Mol. Pharmacol. (1993), 43:320] in a modified Tris-HCl buffer (50 mM Tris-HCl, pH 7.4, 150 mM NaCl, 2 mM Ascorbic Acid, 0.001% BSA) was used. Compounds of the invention were incubated with 1.5 nM [3H]Lysergic acid diethylamide (LSD) for 120 min. at 37° C. Non-specific binding was estimated in the presence of 5 μM Serotonin (5-HT). Receptor proteins were filtered and washed, the filters were then counted to determine[3H]LSD specifically bound. Compounds were screened at 1 μM or lower, using 1% DMSO as vehicle. Biochemical assay results are presented as the percent inhibition of specific binding in Table 4.

[4] = molecular target: T2, human recombinant adrenergic α2B receptor (Homo sapiens, UniProt P18089); experiment: Adrenergic α2B radioligand binding assay; conditions: [3H]Rauwolscine specific binding; for inhibition at 0.1 µM: read-out: Percent Inhibition of ligand binding, Adrenergic (0.1 μM ligand conc.) α2B; for inhibition at 1 µM: read-out: Percent Inhibition of ligand binding, Adrenergic (1 μM ligand conc.) α2B
T2 construct: expressed in transfected cells; host or cells: Chinese hamster ovary (CHO-K1) cells
T2 sequence (P18089 1-450): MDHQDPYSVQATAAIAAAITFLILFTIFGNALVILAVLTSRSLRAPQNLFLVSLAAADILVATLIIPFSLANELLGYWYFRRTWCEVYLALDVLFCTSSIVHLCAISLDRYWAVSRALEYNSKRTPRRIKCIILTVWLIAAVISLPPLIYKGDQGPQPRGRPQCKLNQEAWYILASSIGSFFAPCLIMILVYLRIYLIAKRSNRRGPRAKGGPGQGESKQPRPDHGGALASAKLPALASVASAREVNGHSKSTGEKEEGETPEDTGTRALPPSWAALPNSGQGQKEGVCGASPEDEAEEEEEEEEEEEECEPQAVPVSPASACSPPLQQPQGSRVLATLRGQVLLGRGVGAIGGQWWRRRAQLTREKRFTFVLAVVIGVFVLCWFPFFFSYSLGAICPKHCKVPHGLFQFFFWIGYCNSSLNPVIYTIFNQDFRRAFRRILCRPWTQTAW
Procedure: To evaluate in radioligand binding assays the activity of compounds of the invention, human recombinant adrenergic α2B receptor expressed in Chinese hamster ovary (CHO-K1) cells [Uhlen, S et al., Eur J Pharmacol. (1998), 343(1):93] in a modified Tris-HCl buffer (50 mM Tris-HCl, pH 7.4, 12.5 mM MgCl2, 1 mM EDTA, 0.2% BSA) was used. Compounds of the invention were incubated with 2.5 nM [^3H]Rauwolscine for 60 min. at 25° C. Non-specific binding was estimated in the presence of 10 μM Prozosin. Receptor proteins were filtered and washed, the filters were then counted to determine [^3H]Rauwolscine specifically bound. Compounds were screened at 1 μM or lower, using 1% DMSO as vehicle. Compounds of the invention were tested in this biochemical assay. Biochemical assay results for representative compounds were presented as the percent inhibition of specific binding in Table 3.

[5] = molecular target: T3, human recombinant histamine H2 receptor (Homo sapiens, UniProt P25021); experiment: Histamine H2 radioligand binding assay; conditions: [125I]Aminopotentidine specific binding, read-out: Percentage Inhibition, Histamine Binding (1 μM) H2
T3 construct: expressed in transfected cells; host or cells: Chinese hamster ovary (CHO) K1 cells
Procedure: To evaluate in radioligand binding assays the activity of compounds of the invention, human recombinant histamine H2 receptor expressed in Chinese hamster ovary (CHO) K1 cells [Ruat, M., Proc. Natl. Acad. Sci. USA. (1990), 87(5):1658] in a 50 mM Phosphate buffer, pH 7.4 was used. Compounds of the invention were incubated with 0.1 nM [^125I]Aminopotentidine for 120 min. at 25° C. Non-specific binding was estimated in the presence of 3 μM Tiotidine. Receptor proteins were filtered and washed, the filters were then counted to determine [^125I]Aminopotentidine specifically bound. Compounds were screened at 1 μM or lower, using 1% DMSO as vehicle. Biochemical assay results are presented as the percent inhibition of specific binding in Table 2.

Sequence of human recombinant dopamine D2L receptor (P14416 whole entry): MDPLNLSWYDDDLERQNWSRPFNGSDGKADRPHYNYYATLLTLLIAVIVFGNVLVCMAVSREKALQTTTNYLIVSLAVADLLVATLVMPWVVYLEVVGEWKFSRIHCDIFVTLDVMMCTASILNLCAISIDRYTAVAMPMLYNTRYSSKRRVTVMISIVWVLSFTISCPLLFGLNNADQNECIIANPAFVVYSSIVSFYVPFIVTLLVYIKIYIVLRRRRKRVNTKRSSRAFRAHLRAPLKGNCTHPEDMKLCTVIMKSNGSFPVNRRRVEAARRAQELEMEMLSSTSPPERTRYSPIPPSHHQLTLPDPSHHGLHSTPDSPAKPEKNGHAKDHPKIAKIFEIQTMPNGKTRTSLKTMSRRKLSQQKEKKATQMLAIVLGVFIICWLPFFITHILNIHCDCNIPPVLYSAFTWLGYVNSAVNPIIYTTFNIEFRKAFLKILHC
T3 sequence (P25021 whole entry): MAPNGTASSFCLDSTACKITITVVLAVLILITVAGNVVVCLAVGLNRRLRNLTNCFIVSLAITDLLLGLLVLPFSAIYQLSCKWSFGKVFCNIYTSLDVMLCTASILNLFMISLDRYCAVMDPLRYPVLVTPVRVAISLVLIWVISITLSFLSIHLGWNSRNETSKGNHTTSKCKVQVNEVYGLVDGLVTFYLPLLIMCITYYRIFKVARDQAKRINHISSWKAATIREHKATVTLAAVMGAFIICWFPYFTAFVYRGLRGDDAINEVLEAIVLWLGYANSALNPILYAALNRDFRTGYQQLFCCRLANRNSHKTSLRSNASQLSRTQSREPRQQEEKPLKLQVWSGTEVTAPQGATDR
Sequence of human recombinant histamine H1 receptor (P35367 whole entry): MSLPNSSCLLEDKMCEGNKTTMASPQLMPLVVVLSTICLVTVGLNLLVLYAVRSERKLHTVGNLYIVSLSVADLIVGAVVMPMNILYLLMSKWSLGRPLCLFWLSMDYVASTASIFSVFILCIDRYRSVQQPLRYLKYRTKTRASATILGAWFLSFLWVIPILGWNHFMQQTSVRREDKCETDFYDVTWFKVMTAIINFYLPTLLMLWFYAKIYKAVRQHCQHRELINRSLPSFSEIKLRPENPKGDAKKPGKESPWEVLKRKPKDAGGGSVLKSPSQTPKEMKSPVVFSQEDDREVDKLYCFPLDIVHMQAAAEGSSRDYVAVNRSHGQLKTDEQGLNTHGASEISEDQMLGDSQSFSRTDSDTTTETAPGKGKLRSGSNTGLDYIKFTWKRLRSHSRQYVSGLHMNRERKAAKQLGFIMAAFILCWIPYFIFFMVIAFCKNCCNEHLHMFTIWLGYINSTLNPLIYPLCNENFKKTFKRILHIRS
T1 sequence (P50406 whole entry): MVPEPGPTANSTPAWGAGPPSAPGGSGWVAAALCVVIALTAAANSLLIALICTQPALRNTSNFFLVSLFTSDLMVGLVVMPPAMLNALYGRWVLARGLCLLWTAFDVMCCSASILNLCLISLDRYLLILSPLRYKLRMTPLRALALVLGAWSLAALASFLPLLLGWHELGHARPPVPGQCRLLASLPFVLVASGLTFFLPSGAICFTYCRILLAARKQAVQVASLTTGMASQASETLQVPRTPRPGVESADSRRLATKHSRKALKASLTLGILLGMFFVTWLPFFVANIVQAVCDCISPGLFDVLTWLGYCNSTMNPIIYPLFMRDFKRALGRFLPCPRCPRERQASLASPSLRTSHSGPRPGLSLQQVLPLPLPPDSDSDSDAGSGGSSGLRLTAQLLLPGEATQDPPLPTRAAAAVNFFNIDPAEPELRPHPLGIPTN

## C/C(=C\n1c2c(c3cc(C)ccc31)C1CCN(C2)C1)c1ccc(Cl)cc1Cl (centres unmarked) [Compound 33]
[1]
  Percent Inhibition of ligand binding, Dopamine (1 μM ligand conc.) D2L: −6%
[2]
  Percentage Inhibition, Histamine Binding (1 μM) H1: 76%
[3]
  inhibition at 1 µM: 35%
[4]
  inhibition at 0.1 µM: 9%
  inhibition at 1 µM: 73%
[5]
  inhibition at 1 µM: 35%

## Cc1ccc2c(c1)c1c(n2CCc2ccncc2)CN2CCC1C2 (centres unmarked) [Compound 30]
[1]
  inhibition at 1 µM: 10%
[2]
  inhibition at 1 µM: 76%
[3]
  inhibition at 1 µM: 33%
[4]
  inhibition at 1 µM: 76%
[5]
  inhibition at 1 µM: 18%

## Cc1ccc2c(c1)c1c(n2CCc2cncc(F)c2)CN2CCC1C2 (centres unmarked) [Compound 9]
[1]
  inhibition at 1 µM: 9%
[2]
  inhibition at 1 µM: 89%
[3]
  inhibition at 1 µM: 40%
[4]
  inhibition at 1 µM: 45%
[5]
  inhibition at 1 µM: 6%

## Cc1ccc2c(c1)c1c(n2CC(O)c2ccc(F)cc2)CN2CCC1C2 (centres unmarked) [Compound 31]
[1]
  inhibition at 1 µM: 2%
[2]
  inhibition at 1 µM: 42%
[3]
  inhibition at 1 µM: 46%
[4]
  inhibition at 1 µM: 79%
[5]
  inhibition at 1 µM: 5%

## Cc1ccc2c(c1)c1c(n2CC(C)(O)c2ccc(Cl)cc2)CN2CCC1C2 (centres unmarked) [Compound 16]
[1]
  inhibition at 1 µM: 5%
[2]
  inhibition at 1 µM: 20%
[3]
  inhibition at 1 µM: 29%
[4]
  inhibition at 1 µM: 103%
[5]
  inhibition at 1 µM: 10%

## Cc1ccc2c(c1)c1c(n2CC(=O)N2CCCCC2)CN2CCC1C2 (centres unmarked) [Compound 7]
[1]
  inhibition at 1 µM: -3%
[2]
  inhibition at 1 µM: 17%
[3]
  inhibition at 1 µM: 0%
[4]
  inhibition at 1 µM: 0%
[5]
  inhibition at 1 µM: -4%

## Cc1ccc2c(c1)c1c(n2C(=O)Cc2ccc(Cl)cc2)CN2CCC1C2 (centres unmarked) [Compound 36]
[1]
  inhibition at 1 µM: 3%
[2]
  inhibition at 1 µM: 45%
[3]
  inhibition at 1 µM: 38%
[4]
  inhibition at 0.1 µM: 13%
[5]
  inhibition at 1 µM: 20%

## C/C(=C\n1c2c(c3cc(C)ccc31)C1CCN(C2)C1)c1ccccc1F (centres unmarked) [Compound 38]
[1]
  inhibition at 1 µM: 1%
[2]
  inhibition at 1 µM: 38%
[3]
  inhibition at 1 µM: 58%
[4]
  inhibition at 0.1 µM: 25%
[5]
  inhibition at 1 µM: 7%

## Cc1ccc2c(c1)c1c(n2CC(O)c2ccccc2)CN2CCC1C2 (centres unmarked) [Compound 4]
[1]
  inhibition at 1 µM: 3%
[2]
  inhibition at 1 µM: 67%
[3]
  inhibition at 1 µM: 56%
[4]
  inhibition at 1 µM: 89%
[5]
  inhibition at 1 µM: 5%

## Cc1ccc2c(c1)c1c(n2CC(=O)N2CCC(C)CC2)CN2CCC1C2 (centres unmarked) [Compound 25]
[1]
  inhibition at 1 µM: 9%
[2]
  inhibition at 1 µM: 30%
[3]
  inhibition at 1 µM: -2%
[4]
  inhibition at 1 µM: -17%
[5]
  inhibition at 1 µM: -4%

## Cc1ccc2c(c1)c1c(n2CC(C)(O)c2ccc(F)c(F)c2)CN2CCC1C2 (centres unmarked) [Compound 15]
[1]
  inhibition at 1 µM: 0%
[2]
  inhibition at 1 µM: 82%
[3]
  inhibition at 1 µM: 59%
[4]
  inhibition at 1 µM: 106%
[5]
  inhibition at 1 µM: 13%

## Cc1ccc2c(c1)c1c(n2CCc2ccccn2)CN2CCC1C2 (centres unmarked) [Compound 11]
[1]
  inhibition at 1 µM: -6%
[2]
  inhibition at 1 µM: 77%
[3]
  inhibition at 1 µM: 20%
[4]
  inhibition at 1 µM: 48%
[5]
  inhibition at 1 µM: -2%

## Cc1ccc2c(c1)c1c(n2CC(=O)NC2CCCCC2)CN2CCC1C2 (centres unmarked) [Compound 23]
[1]
  inhibition at 1 µM: 5%
[2]
  inhibition at 1 µM: 13%
[3]
  inhibition at 1 µM: 4%
[4]
  inhibition at 1 µM: -6%
[5]
  inhibition at 1 µM: -3%

## Cc1ccc(/C=C/n2c3c(c4cc(C)ccc42)C2CCN(C3)C2)cc1 (centres unmarked) [Compound 10]
[1]
  inhibition at 1 µM: 18%
[2]
  inhibition at 1 µM: 70%
[3]
  inhibition at 1 µM: -4%
[4]
  inhibition at 1 µM: 66%
[5]
  inhibition at 1 µM: 6%

## Cc1ccc2c(c1)c1c(n2CCc2ccc(C)nc2)CN2CCC1C2 (centres unmarked) [Compound 12]
[1]
  inhibition at 1 µM: 0%
[2]
  inhibition at 1 µM: 59%
[3]
  inhibition at 1 µM: 2%
[4]
  inhibition at 1 µM: 16%
[5]
  inhibition at 1 µM: 4%

## Cc1ccc2c(c1)c1c(n2CC(=O)N2CCNCC2)CN2CCC1C2 (centres unmarked) [Compound 24]
[1]
  inhibition at 1 µM: -8%
[2]
  inhibition at 1 µM: 5%
[3]
  inhibition at 1 µM: 5%
[4]
  inhibition at 1 µM: -4%
[5]
  inhibition at 1 µM: -3%

## Cc1ccc2c(c1)c1c(n2CC(C)(O)c2ccc(Cl)cc2Cl)CN2CCC1C2 (centres unmarked) [Compound 14]
[1]
  inhibition at 1 µM: 11%
[2]
  inhibition at 1 µM: 37%
[3]
  inhibition at 1 µM: 1%
[4]
  inhibition at 1 µM: 68%
[5]
  inhibition at 1 µM: 24%

## C=C(Cn1c2c(c3cc(C)ccc31)C1CCN(C2)C1)c1ccc(F)cc1 (centres unmarked) [Compound 3]
[1]
  Percent Inhibition of ligand binding, Dopamine (1 μM ligand conc.) D2L: 21%
  inhibition at 1 µM: 12%
[2]
  Percentage Inhibition, Histamine Binding (1 μM) H1: 60%
  inhibition at 1 µM: 59%
[3]
  inhibition at 1 µM: 105%
[4]
  inhibition at 1 µM: 93%
[5]
  inhibition at 1 µM: 25%

## C/C(=C\n1c2c(c3cc(C)ccc31)C1CCN(C2)C1)c1ccncc1 (centres unmarked) [Compound 44]
[1]
  inhibition at 1 µM: 9%
[2]
  inhibition at 1 µM: 23%
[3]
  inhibition at 1 µM: 97%
[4]
  inhibition at 0.1 µM: 9%
[5]
  inhibition at 1 µM: -3%

## COc1ccc(C(O)Cn2c3c(c4cc(C)ccc42)C2CCN(C3)C2)cc1OC (centres unmarked) [Compound 8]
[1]
  inhibition at 1 µM: -16%
[2]
  inhibition at 1 µM: 33%
[3]
  inhibition at 1 µM: 11%
[4]
  inhibition at 1 µM: 34%
[5]
  inhibition at 1 µM: 2%

## Cc1ccc2c(c1)c1c(n2CC(=O)N(C)C)CN2CCC1C2 (centres unmarked) [Compound 27]
[1]
  inhibition at 1 µM: 11%
[2]
  inhibition at 1 µM: 10%
[3]
  inhibition at 1 µM: 5%
[4]
  inhibition at 1 µM: -15%
[5]
  inhibition at 1 µM: -3%

## Cc1ccc2c(c1)c1c(n2CC(C)(O)c2ccc(Cl)c(Cl)c2)CN2CCC1C2 (centres unmarked) [Compound 13]
[1]
  inhibition at 1 µM: -2%
[2]
  inhibition at 1 µM: 24%
[3]
  inhibition at 1 µM: 17%
[4]
  inhibition at 1 µM: 99%
[5]
  inhibition at 1 µM: 8%
